Structures are written as SMILES. Converted amounts (≈) assume the structure as drawn.

Broadly, the MIC80 is an inhibitory concentration at the 80% level, which refers to growth in some studies and to a panel of isolates in others. A lower MIC80 goes with higher susceptibility.

The first assay has as its system Candida albicans. Nature of the assay: Antifungal activity against Candida albicans after 48 hrs by spectrophotometry.
Details: not given
In kind it is functional.
Consider `OC(CN1CCC(c2nc(-c3cccnc3)no2)CC1)(Cn1cncn1)c1ccc(F)cc1F` (configuration not stated), for which the MIC80 amounted to 0.063 µg/mL (≈ 0.135 µM).
`OC(CN1CCC(c2nc(-c3ccc(C(F)(F)F)cc3F)no2)CC1)(Cn1cncn1)c1ccc(F)cc1F` (configuration not stated) had an MIC80 of 1 µg/mL (≈ 1.81 µM).
`Cc1ccc(-c2noc(C3CCN(CC(O)(Cn4cncn4)c4ccc(F)cc4F)CC3)n2)cc1` (configuration not stated) registered an MIC80 of 0.5 µg/mL (≈ 1.04 µM).
Consider `COc1ccc(-c2nnc(C3CCN(CC(O)(Cn4cncn4)c4ccc(F)cc4F)CC3)o2)cc1` (configuration not stated), for which the MIC80 worked out at 0.063 µg/mL (≈ 0.127 µM).
On to `COc1cccc(-c2noc(C3CCN(CC(O)(Cn4cncn4)c4ccc(F)cc4F)CC3)n2)c1` (configuration not stated), for which the MIC80 was determined as 1 µg/mL (≈ 2.01 µM).
On to `Cc1ccccc1-c1nnc(C2CCN(CC(O)(Cn3cncn3)c3ccc(F)cc3F)CC2)o1` (configuration not stated), for which the MIC80 is 0.125 µg/mL (≈ 0.26 µM).

A further assay relates to Candida parapsilosis. Put plainly: Antifungal activity against Candida parapsilosis after 48 hrs by spectrophotometry. In kind it is functional. As to conditions: Lodderomyces parapsilosis.
Turning to `OC(CN1CCC(c2nc(-c3cccnc3)no2)CC1)(Cn1cncn1)c1ccc(F)cc1F` (configuration not stated), the MIC80 was found to be 0.25 µg/mL (≈ 0.535 µM).
With `OC(CN1CCC(c2nc(-c3ccc(C(F)(F)F)cc3F)no2)CC1)(Cn1cncn1)c1ccc(F)cc1F` (configuration not stated), the MIC80 was 2 µg/mL (≈ 3.62 µM).
The same measure, in the same setting: under `Cc1ccc(-c2noc(C3CCN(CC(O)(Cn4cncn4)c4ccc(F)cc4F)CC3)n2)cc1` (configuration not stated) stands 2 µg/mL (≈ 4.16 µM).
Consider `COc1ccc(-c2nnc(C3CCN(CC(O)(Cn4cncn4)c4ccc(F)cc4F)CC3)o2)cc1` (configuration not stated), for which the MIC80 stood at 1 µg/mL (≈ 2.01 µM).
`COc1cccc(-c2noc(C3CCN(CC(O)(Cn4cncn4)c4ccc(F)cc4F)CC3)n2)c1` (configuration not stated): the MIC80 turned out to be 4 µg/mL (≈ 8.06 µM).
Still for that read-out and setting: under `Cc1ccccc1-c1nnc(C2CCN(CC(O)(Cn3cncn3)c3ccc(F)cc3F)CC2)o1` (configuration not stated) stands 4 µg/mL (≈ 8.32 µM).

In another assay the test system is Cryptococcus neoformans. Put plainly: Antifungal activity against Cryptococcus neoformans after 48 hrs by spectrophotometry. Type of assay: functional.
Details: not given
Turning to `OC(CN1CCC(c2nc(-c3cccnc3)no2)CC1)(Cn1cncn1)c1ccc(F)cc1F` (configuration not stated), the MIC80 turned out to be 0.125 µg/mL (≈ 0.267 µM).
`OC(CN1CCC(c2nc(-c3ccc(C(F)(F)F)cc3F)no2)CC1)(Cn1cncn1)c1ccc(F)cc1F` (configuration not stated) came in with an MIC80 of 2 µg/mL (≈ 3.62 µM).
Consider `Cc1ccc(-c2noc(C3CCN(CC(O)(Cn4cncn4)c4ccc(F)cc4F)CC3)n2)cc1` (configuration not stated), for which the MIC80 was 4 µg/mL (≈ 8.32 µM).
The same measure, in the same setting: under `COc1ccc(-c2nnc(C3CCN(CC(O)(Cn4cncn4)c4ccc(F)cc4F)CC3)o2)cc1` (configuration not stated) stands 0.5 µg/mL (≈ 1.01 µM); under `COc1cccc(-c2noc(C3CCN(CC(O)(Cn4cncn4)c4ccc(F)cc4F)CC3)n2)c1` (configuration not stated), 2 µg/mL (≈ 4.03 µM).
`Cc1ccccc1-c1nnc(C2CCN(CC(O)(Cn3cncn3)c3ccc(F)cc3F)CC2)o1` (configuration not stated) registered an MIC80 of 4 µg/mL (≈ 8.32 µM).

The test system of a further assay is Nakaseomyces glabratus. Nature of the assay: Antifungal activity against Candida glabrata after 48 hrs by spectrophotometry. Type of assay: functional.
Details: not given
Take `OC(CN1CCC(c2nc(-c3cccnc3)no2)CC1)(Cn1cncn1)c1ccc(F)cc1F` (configuration not stated): the MIC80 worked out at 0.125 µg/mL (≈ 0.267 µM).
As for `OC(CN1CCC(c2nc(-c3ccc(C(F)(F)F)cc3F)no2)CC1)(Cn1cncn1)c1ccc(F)cc1F` (configuration not stated), the MIC80 is 4 µg/mL (≈ 7.24 µM).
The same measure, in the same setting: with `Cc1ccc(-c2noc(C3CCN(CC(O)(Cn4cncn4)c4ccc(F)cc4F)CC3)n2)cc1` (configuration not stated) the figure was 4 µg/mL (≈ 8.32 µM).
`COc1ccc(-c2nnc(C3CCN(CC(O)(Cn4cncn4)c4ccc(F)cc4F)CC3)o2)cc1` (configuration not stated) displayed an MIC80 of 2 µg/mL (≈ 4.03 µM).
The same measure, in the same setting: with `COc1cccc(-c2noc(C3CCN(CC(O)(Cn4cncn4)c4ccc(F)cc4F)CC3)n2)c1` (configuration not stated) the figure was 4 µg/mL (≈ 8.06 µM).
`Cc1ccccc1-c1nnc(C2CCN(CC(O)(Cn3cncn3)c3ccc(F)cc3F)CC2)o1` (configuration not stated) displayed an MIC80 of 8 µg/mL (≈ 16.6 µM).

For a further assay, the system named is Aspergillus fumigatus. Nature of the assay: Antifungal activity against Aspergillus fumigatus after 48 hrs by spectrophotometry. Type of assay: functional.
Details: not given
With `OC(CN1CCC(c2nc(-c3cccnc3)no2)CC1)(Cn1cncn1)c1ccc(F)cc1F` (configuration not stated), the MIC80 is 0.125 µg/mL (≈ 0.267 µM).
The same measure, in the same setting: with `OC(CN1CCC(c2nc(-c3ccc(C(F)(F)F)cc3F)no2)CC1)(Cn1cncn1)c1ccc(F)cc1F` (configuration not stated) the figure was 4 µg/mL (≈ 7.24 µM); with `Cc1ccc(-c2noc(C3CCN(CC(O)(Cn4cncn4)c4ccc(F)cc4F)CC3)n2)cc1` (configuration not stated), 4 µg/mL (≈ 8.32 µM).
Turning to `COc1ccc(-c2nnc(C3CCN(CC(O)(Cn4cncn4)c4ccc(F)cc4F)CC3)o2)cc1` (configuration not stated), the MIC80 stood at 2 µg/mL (≈ 4.03 µM).
As to `COc1cccc(-c2noc(C3CCN(CC(O)(Cn4cncn4)c4ccc(F)cc4F)CC3)n2)c1` (configuration not stated), the MIC80 was 4 µg/mL (≈ 8.06 µM).
The same measure, in the same setting: with `Cc1ccccc1-c1nnc(C2CCN(CC(O)(Cn3cncn3)c3ccc(F)cc3F)CC2)o1` (configuration not stated) the figure was 8 µg/mL (≈ 16.6 µM).

In a further assay the test system is Trichophyton rubrum. Put plainly: Antifungal activity against Trichophyton rubrum after 48 hrs by spectrophotometry. In kind it is functional.
Details: not given
`OC(CN1CCC(c2nc(-c3cccnc3)no2)CC1)(Cn1cncn1)c1ccc(F)cc1F` (configuration not stated): the MIC80 was 1 µg/mL (≈ 2.14 µM).
Still for that read-out and setting: with `OC(CN1CCC(c2nc(-c3ccc(C(F)(F)F)cc3F)no2)CC1)(Cn1cncn1)c1ccc(F)cc1F` (configuration not stated) the figure was 1 µg/mL (≈ 1.81 µM); with `Cc1ccc(-c2noc(C3CCN(CC(O)(Cn4cncn4)c4ccc(F)cc4F)CC3)n2)cc1` (configuration not stated), 2 µg/mL (≈ 4.16 µM); with `COc1ccc(-c2nnc(C3CCN(CC(O)(Cn4cncn4)c4ccc(F)cc4F)CC3)o2)cc1` (configuration not stated), 1 µg/mL (≈ 2.01 µM).
`COc1cccc(-c2noc(C3CCN(CC(O)(Cn4cncn4)c4ccc(F)cc4F)CC3)n2)c1` (configuration not stated) registered an MIC80 of 4 µg/mL (≈ 8.06 µM).
For `Cc1ccccc1-c1nnc(C2CCN(CC(O)(Cn3cncn3)c3ccc(F)cc3F)CC2)o1` (configuration not stated), the MIC80 is 16 µg/mL (≈ 33.3 µM).

A further assay concerns Nannizzia gypsea. Put plainly: Antifungal activity against Microsporum gypseum after 48 hrs by spectrophotometry. In kind it is functional.
Details: not given
The molecule `OC(CN1CCC(c2nc(-c3cccnc3)no2)CC1)(Cn1cncn1)c1ccc(F)cc1F` (configuration not stated) registered an MIC80 of 0.5 µg/mL (≈ 1.07 µM).
In turn, `OC(CN1CCC(c2nc(-c3ccc(C(F)(F)F)cc3F)no2)CC1)(Cn1cncn1)c1ccc(F)cc1F` (configuration not stated) yielded an MIC80 of 0.5 µg/mL (≈ 0.905 µM).
In turn, `Cc1ccc(-c2noc(C3CCN(CC(O)(Cn4cncn4)c4ccc(F)cc4F)CC3)n2)cc1` (configuration not stated) displayed an MIC80 of 8 µg/mL (≈ 16.6 µM).
Consider `COc1ccc(-c2nnc(C3CCN(CC(O)(Cn4cncn4)c4ccc(F)cc4F)CC3)o2)cc1` (configuration not stated), for which the MIC80 stood at 1 µg/mL (≈ 2.01 µM).
For the molecule `COc1cccc(-c2noc(C3CCN(CC(O)(Cn4cncn4)c4ccc(F)cc4F)CC3)n2)c1` (configuration not stated), the MIC80 was determined as 4 µg/mL (≈ 8.06 µM).
On the same count and under the same terms, under `Cc1ccccc1-c1nnc(C2CCN(CC(O)(Cn3cncn3)c3ccc(F)cc3F)CC2)o1` (configuration not stated) stands 16 µg/mL (≈ 33.3 µM).

Source of the values: ChEMBL document CHEMBL3734719, “Discovery of highly potent triazoleantifungal agents with piperidine-oxadiazole side chains” (2015).
